Measurements taken from PMC9646673, “A Novel, Orally Bioavailable, Small-Molecule Inhibitor of PCSK9 With Significant Cholesterol-Lowering Properties In Vivo” (Journal of Lipid Research, 2022).

Legend:
hepatic LDLR protein = experiment: Second efficacy study: hepatic LDLR protein (Western blotting); assay type: in vivo, mouse; settings: day 35; NYX-PCSK9i 50 mg/kg BID PO, atorvastatin […]
APOE∗3-Leiden.CETP mice [1] = experiment: Second efficacy study: body weight, food intake, plasma ALT and AST; assay type: in vivo, mouse; design: Body weight (mean ± SD) / Food intake (mean ± SD): unit not given here; settings: NYX-PCSK9i 50 mg/kg BID PO, atorvastatin […]
Description: Animal experiments were approved by the governmental central committee on animal experiments (AVD5010020172064) and TNO’s animal welfare body (TNO-471 and TNO-482). Female APOE∗3-Leiden.CETP transgenic mice (11–16 weeks of age) were bred at the animal facility of TNO-InnoSer (Leiden, The Netherlands). Female animals were used in this study as they are more responsive to dietary cholesterol and fat than males and therefore typically develop atherosclerosis more rapidly than male APOE∗3-Leiden and APOE∗3-Leiden.CETP mice on cholesterol-containing diets ([33], [34]). Although measurements of atherosclerosis were not included as part of the present study, females were used with the prospect in mind that atherosclerosis studies will follow. The mice were housed under standard conditions that included 12 h light-dark cycles and access to a WTD and sterilized tap water ad libitum. Body weight, food intake, and clinical signs of behavior were monitored throughout the studies. […] Time t = 0 (weeks) was designated as the time at which mice were matched into groups after the 3-week run-in period in each efficacy study.
In both studies, blood samples were collected at weekly intervals via tail vein sampling after fasting the mice for 4 h. Blood samples were centrifugated (4500 g at 4°C), and the plasma was collected for the following analyses. Total plasma cholesterol levels were determined using a Cholesterol CHOD-PAP kit according to the manufacturer’s instructions. Plasma HDL-C levels were determined by first precipitating apoB-containing lipids using PEG 6000/glycine and then utilizing the Cholesterol CHOD-PAP kit ([35]). Non-HDL-C levels were determined by subtracting HDL-C levels from total cholesterol levels ([32]). Group-pooled lipoprotein profiles were determined by FPLC analysis using an AKTApurifier 10 FPLC system (GE Healthcare, Chicago, IL). Plasma PCSK9 levels were determined using a Mouse PCSK9 Quantikine ELISA kit as per the manufacturer’s protocol. ALT and AST levels of group-pooled samples were measured using the Roche Reflotron Plus System (Mannheim, Germany).

APOE∗3-Leiden.CETP mice [2] = settings: cited from earlier work

## CC(C)c1c(C(=O)Nc2ccccc2)c(-c2ccccc2)c(-c2ccc(F)cc2)n1CC[C@@H](O)C[C@@H](O)CC(=O)O [atorvastatin, reference compound]
Hepatic LDLR protein
  increase in hepatic LDLR protein expression: no significant effect
APOE∗3-Leiden.CETP mice [1]; day 0 (baseline)
  Body weight (mean ± SD): 21.7 ± 0.8
  Food intake (mean ± SD): 3.4 ± 0.3
APOE∗3-Leiden.CETP mice [1]; day 7
  Food intake (mean ± SD): 2.5 ± 0.1
APOE∗3-Leiden.CETP mice [1]; day 14
  Food intake (mean ± SD): 2.5 ± 0.2
APOE∗3-Leiden.CETP mice [1]; day 21
  Food intake (mean ± SD): 2.3 ± 0.0
APOE∗3-Leiden.CETP mice [1]; day 28
  Body weight (mean ± SD): 21.8 ± 1.2
  Food intake (mean ± SD): 2.3 ± 0.1
APOE∗3-Leiden.CETP mice [1]; day 35
  Food intake (mean ± SD): 2.5 ± 0.1

## alirocumab: a monoclonal antibody against PCSK9
APOE∗3-Leiden.CETP mice [2]
  hepatic cholesteryl ester content, fecal bile acid content and fecal neutral sterol levels: affected none of these parameters
